Results published in ChEMBL document CHEMBL6103653, “Alstolarsines A-E, Indoline Alkaloids with Two Different Carbon Skeletons from Alstonia scholaris” (J Nat Prod, 2025).

What was measured:
Homo sapiens = organism: Homo sapiens; assay: Inhibition of DRAK2 autophosphorylation (unknown origin) at 20 microg/ml by ADP-Glo assay relative to control; conditions: dose 20.0 µg/ml
[1] = molecular target: T1, ATP-citrate synthase (Homo sapiens) (UniProt P53396); assay: Inhibition of ATP citrate lyase (unknown origin) at 20 microg/ml by ADP-Glo assay relative to control; conditions: dose 20.0 µg/ml
T1 sequence (whole entry): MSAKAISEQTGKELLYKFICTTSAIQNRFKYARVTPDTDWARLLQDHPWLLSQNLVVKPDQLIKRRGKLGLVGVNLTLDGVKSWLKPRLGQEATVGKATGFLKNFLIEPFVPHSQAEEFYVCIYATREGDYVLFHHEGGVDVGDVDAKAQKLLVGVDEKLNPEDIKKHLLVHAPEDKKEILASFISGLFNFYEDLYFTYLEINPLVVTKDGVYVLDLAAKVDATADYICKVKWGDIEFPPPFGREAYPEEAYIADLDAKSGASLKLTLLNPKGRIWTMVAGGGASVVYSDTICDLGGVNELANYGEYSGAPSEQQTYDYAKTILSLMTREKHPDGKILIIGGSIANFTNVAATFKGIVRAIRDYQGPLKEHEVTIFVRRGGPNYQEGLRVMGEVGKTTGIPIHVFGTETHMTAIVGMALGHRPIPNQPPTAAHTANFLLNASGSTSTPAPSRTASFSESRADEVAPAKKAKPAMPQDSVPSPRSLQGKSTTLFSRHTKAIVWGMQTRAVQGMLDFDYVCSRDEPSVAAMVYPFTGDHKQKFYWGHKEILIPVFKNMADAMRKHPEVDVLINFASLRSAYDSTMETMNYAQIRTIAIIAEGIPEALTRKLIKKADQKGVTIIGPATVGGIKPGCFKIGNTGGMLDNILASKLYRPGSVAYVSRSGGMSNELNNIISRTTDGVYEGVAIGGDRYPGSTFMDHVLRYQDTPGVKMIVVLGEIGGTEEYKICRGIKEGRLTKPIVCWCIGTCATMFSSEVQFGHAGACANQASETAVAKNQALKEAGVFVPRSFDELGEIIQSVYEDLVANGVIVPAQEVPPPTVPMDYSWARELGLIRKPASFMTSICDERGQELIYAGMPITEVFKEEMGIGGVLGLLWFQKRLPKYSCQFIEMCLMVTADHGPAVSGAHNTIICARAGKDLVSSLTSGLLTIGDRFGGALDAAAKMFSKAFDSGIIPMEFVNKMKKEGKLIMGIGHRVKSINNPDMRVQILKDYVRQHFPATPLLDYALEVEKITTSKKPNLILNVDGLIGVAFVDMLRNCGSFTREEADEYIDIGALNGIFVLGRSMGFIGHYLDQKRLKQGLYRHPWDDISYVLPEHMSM

inhibition (Homo sapiens) [%] | inhibition [1] [%] | SMILES
49.2 | 17 | C/C=C1/C[N@@+]2(C)CC[C@@]34c5ccccc5N[C@]32C(=O)[C@H]2[C@@H]1[C@]4(C(=O)[O-])CO[C@@H]2C
16.5 | 5.1 | C/C=C1/C[N@@+]2(C)CC[C@@]34c5ccccc5N[C@]32C(=O)[C@@H]2[C@H](C)OC[C@@]4(C(=O)[O-])[C@H]12
47.7 | 49.2 | C/C=C1/C[N@@+]2(C)CC[C@@]34c5ccccc5N[C@]32C(=O)[C@@H]2COC[C@@]4(C(=O)[O-])[C@H]12
4.5 | 5.5 | C/C=C1/C[N@@+]2(C)CC[C@@]34c5ccccc5N[C@]32C(=O)[C@]2(C)OC[C@@]4(C(=O)[O-])[C@H]12
